Assay results taken from ChEMBL document CHEMBL5252651, “Discovery of Bioactive Metabolites by Acidic Stress to a Geldanamycin Producer, Streptomyces samsunensis” (J Nat Prod, 2023).
Calls of active or inactive are those of the source. The calls are words filed in the database; no cut-off is given here.

test system: Staphylococcus aureus; assay: Antivirulence activity against methicillin-resistant Staphylococcus aureus USA300 LAC assessed as change in Hla transcriptional level at 10 ug/ml incubated for 8 to 16 hrs by qRT-PCR analysis; type: functional, organism-based; settings: dose 10.0 µg/ml, time 8-16 hrs

**Q.** How did the Activity turn out when `CO[C@H]1/C=C\C=C(/C)C(=O)NC2=CC(=O)C(O)=C(C[C@@H](C)C[C@H](OC)[C@H](O)[C@@H](C)/C=C(\C)[C@@H]1OC(N)=O)C2=O` was run?
**A.** inactive

**Q.** For `CO[C@@H](C[C@H](C)Cc1cc(O)cc(NC(C)=O)c1)[C@H](O)[C@H](C)C(=O)O`, which Activity is on record?
**A.** inactive

**Q.** With `COC1=C2C[C@@H](C)C[C@H](OC)[C@H](O)[C@@H](C)/C=C(\C)[C@H](OC(N)=O)[C@@H](OC)/C=C\C=C(/C)C(=O)NC(=CC1=O)C2=O` as the compound, how does the Activity read?
**A.** inactive
